The series has as its system CCRIS mutagenicity, Ames/micronucleus/aberration tests. The series can be described thus: CCRIS mutagenicity studies.
Where [1] appears, read: Test System: AMES SALMONELLA TYPHIMURIUM, Strain/Indicator: TA97, Metabolic Activation: HAMSTER, LIVER, S-9, AROCLOR 1254 (10%), Method: PREINCUBATION
Setting [2] is: Test System: AMES SALMONELLA TYPHIMURIUM, Strain/Indicator: TA97, Metabolic Activation: NONE, Method: PREINCUBATION
The mark [3] stands for this setting: Test System: AMES SALMONELLA TYPHIMURIUM, Strain/Indicator: TA97, Metabolic Activation: RAT, LIVER, S-9, AROCLOR 1254 (10%), Method: PREINCUBATION
Setting [4] is: Test System: AMES SALMONELLA TYPHIMURIUM, Strain/Indicator: TA100, Metabolic Activation: NONE, Method: PREINCUBATION
Where [5] appears, read: Test System: AMES SALMONELLA TYPHIMURIUM, Strain/Indicator: TA1535, Metabolic Activation: HAMSTER, LIVER, S-9, AROCLOR 1254 (10%), Method: PREINCUBATION
Where [6] appears, read: Test System: AMES SALMONELLA TYPHIMURIUM, Strain/Indicator: TA1535, Metabolic Activation: NONE, Method: PREINCUBATION
Setting [7] is: Test System: AMES SALMONELLA TYPHIMURIUM, Strain/Indicator: TA1535, Metabolic Activation: RAT, LIVER, S-9, AROCLOR 1254 (10%), Method: PREINCUBATION

Calls of active or inactive are those of the source. The rule behind the calls is not given here.

As for `c1ccc2sc(SSc3nc4ccccc4s3)nc2c1`, the mutagenic call is “inactive; negative” under setting [1]; “active; positive” under setting [2]; “inactive; negative” under setting [3]; “inactive; negative” (Test System: AMES SALMONELLA TYPHIMURIUM, Strain/Indicator: TA98, Metabolic Activation: HAMSTER, LIVER, S-9, AROCLOR 1254 (10 OR 30%), Method: PREINCUBATION); “inactive; negative” (Test System: AMES SALMONELLA TYPHIMURIUM, Strain/Indicator: TA98, Metabolic Activation: RAT, LIVER, S-9, AROCLOR 1254 (10 OR 30%), Method: PREINCUBATION); “inactive; negative” (Test System: AMES SALMONELLA TYPHIMURIUM, Strain/Indicator: TA100, Metabolic Activation: HAMSTER, LIVER, S-9, AROCLOR 1254 (10 OR 30%), Method: PREINCUBATION). Besides, the mutagenic call by setting is: under setting [4], “inactive; negative”; (Test System: AMES SALMONELLA TYPHIMURIUM, Strain/Indicator: TA100, Metabolic Activation: RAT, LIVER, S-9, AROCLOR 1254 (10 OR 30%), Method: PREINCUBATION) “active; positive”; under setting [5], “inactive; negative”; under setting [6], “inactive; negative”; under setting [7], “inactive; negative”.
Turning to `Fc1ccc2cccnc2c1`, the mutagenic call (Test System: AMES SALMONELLA TYPHIMURIUM, Strain/Indicator: TA100, Metabolic Activation: RAT LIVER S-9, PHENOBARBITAL AND 5,6-BENZOFLAVONE, Method: PREINCUBATION) was “active; positive”; the mutagenic call (Test System: AMES SALMONELLA TYPHIMURIUM, Strain/Indicator: TA100, Metabolic Activation: RAT, LIVER, S-9, AROCLOR 1254, Method: PREINCUBATION) was “active; positive”; the mutagenic call (Test System: UDS RODENT HEPATOCYTES, Strain/Indicator: THY INCORP (NON-S-PHASE), Metabolic Activation: NONE, Method: AUTORADIOGRAPHY) was “active; positive”.
Regarding `CN(C)c1cccc(O)c1`, the mutagenic call was “active; positive” under setting [1]; “inactive; negative” under setting [2]; “active; positive” under setting [3]; “active; positive” (Test System: AMES SALMONELLA TYPHIMURIUM, Strain/Indicator: TA98, Metabolic Activation: HAMSTER, LIVER, S-9, AROCLOR 1254 (10%), Method: PREINCUBATION); “inactive; negative” (Test System: AMES SALMONELLA TYPHIMURIUM, Strain/Indicator: TA98, Metabolic Activation: NONE, Method: PREINCUBATION); “active; positive” (Test System: AMES SALMONELLA TYPHIMURIUM, Strain/Indicator: TA98, Metabolic Activation: RAT, LIVER, S-9, AROCLOR 1254 (10%), Method: PREINCUBATION). Also, the mutagenic call reads like this: (Test System: AMES SALMONELLA TYPHIMURIUM, Strain/Indicator: TA100, Metabolic Activation: HAMSTER, LIVER, S-9, AROCLOR 1254 (10%), Method: PREINCUBATION) “active; positive”; under setting [4], “inactive; negative”; (Test System: AMES SALMONELLA TYPHIMURIUM, Strain/Indicator: TA100, Metabolic Activation: RAT, LIVER, S-9, AROCLOR 1254 (10%), Method: PREINCUBATION) “active; positive”; under setting [5], “inactive; negative”; under setting [6], “inactive; negative”; under setting [7], “inactive; negative”.

(Values after PubChem BioAssay AID1259407 (Chemical Carcinogenesis Research Information System (CCRIS), 2018).)
